Measurements reported in ChEMBL document CHEMBL3804786, “Novel 1,3-thiazolidin-4-one derivatives as promising anti-Candida agents endowed with anti-oxidant and chelating properties” (Eur J Med Chem, 2016).
Converted amounts (≈) assume the structure as drawn.

Key:
Enterococcus faecalis = experiment: Antibacterial activity against Streptococcus faecalis clinical isolate after 18 to 22 hrs by broth microdilution method; format: functional
[1] = Cytotoxicity against human Hep2 cells assessed as cell survival at 10 ug/ml after 24 hrs by trypan blue exclusion assay; format: cell-based, HEp-2; settings: read-out: Survival
[2] = Antioxidant activity assessed as ABTS radical scavenging activity after 30 mins under dark conditions; format: physicochemical
Candida albicans = experiment: Antifungal activity against Candida albicans clinical isolate after 24 hrs by broth microdilution method; format: functional
[3] = tested on: Streptococcus sp. (viridans group); experiment: Antibacterial activity against Streptococcus alpha-hemolyticus clinical isolate after 18 to 22 hrs by broth microdilution method
Klebsiella oxytoca = experiment: Antibacterial activity against Klebsiella oxytoca clinical isolate after 18 to 22 hrs by broth microdilution method; format: functional
[4] = Cytotoxicity against human Hep2 cells assessed as reduction in cell viability after 24 hrs by trypan blue exclusion assay; format: cell-based, HEp-2
[5] = Antioxidant activity assessed as DPPH radical scavenging activity after 30 mins under dark conditions; format: physicochemical
Pichia kudriavzevii = experiment: Antifungal activity against Candida krusei clinical isolate after 24 hrs by broth microdilution method; format: functional
[6] = Cytotoxicity against human Hep2 cells assessed as cell survival at 50 ug/ml after 24 hrs by trypan blue exclusion assay; format: cell-based, HEp-2; settings: read-out: Survival
[7] = Cytotoxicity against human Hep2 cells assessed as cell survival at 5 ug/ml after 24 hrs by trypan blue exclusion assay; format: cell-based, HEp-2; settings: read-out: Survival
Staphylococcus aureus = experiment: Antibacterial activity against Staphylococcus aureus clinical isolate after 18 to 22 hrs by broth microdilution method; format: functional
[8] = Antioxidant activity of the compound after 30 mins by CUPRAC method; format: physicochemical
[Candida] sake = Antifungal activity against Candida sake clinical isolate after 24 hrs by broth microdilution method; format: functional; settings: Fermentozyma sake
Candida tropicalis = experiment: Antifungal activity against Candida tropicalis clinical isolate after 24 hrs by broth microdilution method; format: functional
[9] = Antioxidant activity of the compound after 30 mins by FRAP assay; format: physicochemical
Escherichia coli = experiment: Antibacterial activity against Escherichia coli after clinical isolate 18 to 22 hrs by broth microdilution method; format: functional
Candida parapsilosis = experiment: Antifungal activity against Candida parapsilosis clinical isolate after 24 hrs by broth microdilution method; format: functional; settings: Lodderomyces parapsilosis
[10] = Metal chelating activity of the compound assessed as ferrous ion complex formation after 10 mins; format: physicochemical
[11] = Cytotoxicity against human Hep2 cells assessed as cell survival at 0.5 ug/ml after 24 hrs by trypan blue exclusion assay; format: cell-based, HEp-2; settings: read-out: Survival
Nakaseomyces glabratus = experiment: Antifungal activity against Candida glabrata clinical isolate after 24 hrs by broth microdilution method; format: functional
Enterobacter sp. = experiment: Antibacterial activity against Enterobacter spp. clinical isolate after 18 to 22 hrs by broth microdilution method; format: functional
Proteus mirabilis = experiment: Antibacterial activity against Proteus mirabilis clinical isolate after 18 to 22 hrs by broth microdilution method; format: functional
[12] = Antioxidant activity of the compound after 90 mins by phosphomolybdenum assay; format: physicochemical
Staphylococcus warneri = experiment: Antibacterial activity against Staphylococcus warneri clinical isolate after 18 to 22 hrs by broth microdilution method; format: functional
[13] = Cytotoxicity against human Hep2 cells assessed as cell survival at 0.05 ug/ml after 24 hrs by trypan blue exclusion assay; format: cell-based, HEp-2; settings: read-out: Survival

Compound	MIC (Enterococcus faecalis) [µg/mL]	viability at 24 h, 10 ug/ml [1] [%]	IC50 [2] [mM]	MIC (Candida albicans) [µg/mL]	MIC [3] [µg/mL]	MIC (Klebsiella oxytoca) [µg/mL]	CC50 at 24 h [4] [µg/mL]	IC50 [5] [mM]	MIC (Pichia kudriavzevii) [µg/mL]	viability at 24 h, 50 ug/ml [6] [%]	viability at 24 h, 5 ug/ml [7] [%]	MIC (Staphylococcus aureus) [µg/mL]	EC50 [8] [mM]	MIC ([Candida] sake) [µg/mL]	MIC (Candida tropicalis) [µg/mL]	EC50 [9] [mM]	MIC (Escherichia coli) [µg/mL]	MIC (Candida parapsilosis) [µg/mL]	IC50 [10] [mM]	viability at 24 h, 0.5 ug/ml [11] [%]	also measured
C/C(=N/N=C1\SCC(=O)N1Cc1ccccc1[N+](=O)[O-])c1cccs1	> 256	61	18.1	2 (≈ 5.34 µM)	> 256	> 256	20 (≈ 53.4 µM)	> 5	2 (≈ 5.34 µM)	0	74	> 256	2.25	2 (≈ 5.34 µM)	4 (≈ 10.7 µM)	2.4	> 256	8 (≈ 21.4 µM)	> 5	84	MIC (Nakaseomyces glabratus): 2 µg/mL (≈ 5.34 µM); MIC (Enterobacter sp.): > 256 µg/mL; MIC (Proteus mirabilis): > 256 µg/mL; EC50 [12]: 1.12 mM; MIC (Staphylococcus warneri): > 256 µg/mL; viability at 24 h, 0.05 ug/ml [13]: 88%
CC(C)=N/N=C1\SCC(=O)N1Cc1cccc([N+](=O)[O-])c1	> 256	0	19.4	2 (≈ 6.53 µM)	> 256	> 256	5 (≈ 16.3 µM)	> 5	2 (≈ 6.53 µM)	0	51	> 256	2.35	2 (≈ 6.53 µM)	2 (≈ 6.53 µM)	5.29	> 256	16 (≈ 52.2 µM)	> 5	68	MIC (Nakaseomyces glabratus): 2 µg/mL (≈ 6.53 µM); MIC (Enterobacter sp.): > 256 µg/mL; MIC (Proteus mirabilis): > 256 µg/mL; EC50 [12]: 1.24 mM; MIC (Staphylococcus warneri): > 256 µg/mL; viability at 24 h, 0.05 ug/ml [13]: 79%
O=C1CS/C(=N\N=C2CCCC2)N1Cc1ccc(Cl)cc1	> 256	47	18.3	2 (≈ 6.21 µM)	> 256	> 256	16 (≈ 49.7 µM)	> 5	8 (≈ 24.9 µM)	0	59	> 256	2.1	4 (≈ 12.4 µM)	2 (≈ 6.21 µM)	4.8	> 256	2 (≈ 6.21 µM)	> 5	83	MIC (Nakaseomyces glabratus): 2 µg/mL (≈ 6.21 µM); MIC (Enterobacter sp.): > 256 µg/mL; MIC (Proteus mirabilis): > 256 µg/mL; EC50 [12]: 0.56 mM; MIC (Staphylococcus warneri): > 256 µg/mL; viability at 24 h, 0.05 ug/ml [13]: 89%
